# Reference: US7829552B2, “Phosphorus-containing thyromimetics” (Metabasis Therapeutics, Inc., priority 2003, dated 2010)
# pKi: −log10 of the molar value.
# Tests used:
# [1] = system: Hypercholesterolemic rats; assay: Cholesterol lowering in hypercholesterolemic (cholesterol-fed) rats; format: in vivo, rat; settings: for efficacy in lowering cholesterol: another experiment, dose and route not given; for cholesterol lowering: hypercholesterolemic rats, 0.5 mg/kg/d orally
# Method: Plasma cholesterol values were assessed prior to and following treatment and the effects of compound were expressed as a percentage change from the pre-dose cholesterol levels. […] Compounds were routinely tested for oral efficacy at a dose of 0.5 mg/kg/d. Hypercholesterolemic rats were treated with vehicle, Compound 13-1-cis (a HepDirect version of Compound 7), Compound 19-1 (a diethyl ester of Compound 19-2), Compound 13-9 (a HepDirect version of Compound 19-2), Compound 12-5 (a bisPom version of compound 19-2), or Compound 15-5 (a bisamidate version of Compound 19-2) at 0.5 mg/kg/d orally. Compound 13-1-cis has been extensively characterized and was used as the positive control for the assay.
# [2] = molecular target: T1, human thyroid hormone receptors TRα1 (Homo sapiens, UniProt P10827); assay: Receptor binding, scintillation proximity assay (SPA) with labeled T3; T3 binding also by gel filtration; settings: SPA data; read-out: Ki TRα
# T1 construct: made in house; host or cells: Sf9 insect cells (baculovirus co-infection of TR and RXRα), cell lysate
# T1 sequence (P10827 1-410 isoform P10827-2): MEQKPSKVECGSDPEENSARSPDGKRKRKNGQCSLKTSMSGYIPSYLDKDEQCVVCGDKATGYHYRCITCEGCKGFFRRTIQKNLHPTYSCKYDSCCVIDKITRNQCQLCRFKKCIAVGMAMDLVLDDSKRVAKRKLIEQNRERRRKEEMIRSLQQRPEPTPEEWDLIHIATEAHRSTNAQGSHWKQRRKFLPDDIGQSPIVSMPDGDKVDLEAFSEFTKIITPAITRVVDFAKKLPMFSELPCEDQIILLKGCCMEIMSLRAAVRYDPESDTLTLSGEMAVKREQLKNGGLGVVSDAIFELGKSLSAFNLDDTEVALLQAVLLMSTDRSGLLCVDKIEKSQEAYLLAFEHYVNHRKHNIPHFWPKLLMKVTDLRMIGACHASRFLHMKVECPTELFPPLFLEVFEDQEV
# T1 sequence (P19793 1-462 partner): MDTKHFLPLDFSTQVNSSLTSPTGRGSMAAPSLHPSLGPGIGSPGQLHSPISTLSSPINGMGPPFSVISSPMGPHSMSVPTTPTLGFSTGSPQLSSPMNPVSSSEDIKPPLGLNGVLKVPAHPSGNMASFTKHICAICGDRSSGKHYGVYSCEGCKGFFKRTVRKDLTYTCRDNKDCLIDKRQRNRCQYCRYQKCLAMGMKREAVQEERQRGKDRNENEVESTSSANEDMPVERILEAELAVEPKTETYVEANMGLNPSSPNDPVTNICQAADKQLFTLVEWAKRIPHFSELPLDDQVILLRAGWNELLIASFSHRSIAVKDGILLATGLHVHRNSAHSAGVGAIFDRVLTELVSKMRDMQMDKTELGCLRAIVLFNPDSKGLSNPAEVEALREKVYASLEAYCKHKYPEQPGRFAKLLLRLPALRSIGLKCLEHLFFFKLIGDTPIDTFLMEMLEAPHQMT
# Method: (§1) Methods: Baculoviruses expressing TRα1, TRβ1 and RXRα were generated using cDNA and other reagents from Invitrogen (Carlsbad, Calif.). To produce TR/RXR heterodimer proteins, the sf9 insect cells were first grown to a density of 1−5×10^5 cells/mL. TRα1 or TRβ1 and RXRα baculovirus stocks were added to the cell culture with a ratio of 1 to 1 (multiplicity of infection=10). The cells were harvested three days after the infection.
# (§2) Binding of compounds to either the TRα1 or TRβ1 were also performed by means of scintillation proximity assays (SPA). The SPA assay, a common method used for the quantitation of receptor-ligand equilibria, makes use of special beads coated with a scintillant and a capture molecule, copper, which binds to the histidine-tagged α or β receptor.
# [3] = molecular target: T2, human thyroid hormone receptors TRβ1 (Homo sapiens, UniProt P10828); assay: as above; settings: SPA data; read-out: Ki TRβ
# T2 construct: made in house; host or cells: Sf9 insect cells (baculovirus co-infection of TR and RXRα), cell lysate
# T2 sequence (P10828 1-461): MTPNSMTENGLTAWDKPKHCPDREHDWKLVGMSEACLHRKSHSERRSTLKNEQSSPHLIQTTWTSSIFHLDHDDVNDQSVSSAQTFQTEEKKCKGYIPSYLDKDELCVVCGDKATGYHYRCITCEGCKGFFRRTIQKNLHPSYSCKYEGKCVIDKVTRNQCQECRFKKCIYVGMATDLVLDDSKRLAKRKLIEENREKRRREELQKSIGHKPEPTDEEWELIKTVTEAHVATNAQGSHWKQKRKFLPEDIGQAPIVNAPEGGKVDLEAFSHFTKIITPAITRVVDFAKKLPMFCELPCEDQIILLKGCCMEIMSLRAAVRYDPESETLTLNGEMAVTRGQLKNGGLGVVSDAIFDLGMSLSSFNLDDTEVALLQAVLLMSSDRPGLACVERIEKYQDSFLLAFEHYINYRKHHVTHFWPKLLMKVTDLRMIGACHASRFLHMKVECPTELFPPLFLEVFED
# T2 sequence (P19793 1-462 partner): T1 sequence (P19793 1-462 partner)
# Method: as §1, §2
# Normal rats = assay: Hepatic triglyceride content in normal rats chronically infused for 7 days; format: in vivo, rat
# Method: Normal rats were chronically infused with Compound 7 for 7 days. Liver triglycerides were analyzed following lipid extraction by the Bligh Dyer method (Bligh E G and Dyer W J, A rapid method of total lipid extraction and purification. Can J Med. Sci. 1959 (August); 37(8):911-7, incorporated herein by reference). Total triglycerides were analyzed in the liver extracts by an enzymatic assay (Thermo Electron Corporation). Total lipid was normalized to initial liver weight and triglyceride content was normalized to liver weight. […] There was a 4% reduction in liver triglycerides for this group and the results were not statistically significant.
# [4] = system: Normal rats (Sprague-Dawley); assay: Subacute studies in normal rats, continuous infusion by osmotic pump: liver/heart mGPDH activity, heart weight; format: in vivo, rat; settings: continuous infusion 1 mg/kg/day
# Text: Efficacy endpoints include serum cholesterol, liver mitochondrial glycerol phosphate dehydrogenase (mGPDH) activity and the expression of relevant liver genes (e.g., the LDL-receptor, apoB, cpt-1, spot14 and apoAI). Safety parameters include heart weight, heart rate, heart mGPDH activity, the expression and key genes involved in cardiac structure and function (e.g., Serca2, HCN2, Kv1.5, MHCα, MHCβ, Alpha1c), and standard plasma chemistry analysis (liver enzymes, electrolytes, creatinine). Endocrine effects are monitored by analysis of serum thyroid stimulating hormone (TSH). [Taylor et al., Mol Pharmacol 52(3): 542-7 (1997); Weitzel et al., Eur Biochem 268(14):4095-4103 (2001)]
# Methods: mGPDH activity was analyzed in isolated mitochondria using 2-(4-iodophenyl)-3-(4-nitrophenyl)-5-phenyl tetrazolium chloride as the terminal electron acceptor (Gardner R S, Analytical Biochemistry 59:272 (1974)). Commercially available GPDH was used in each assay as a standard (Sigma, St. Louis, Mo.). Changes in levels of mRNA for liver and heart genes are analyzed using reverse transcriptase followed by real-time PCR analysis. The analysis is performed using an iCycler instrument (Biorad) and appropriate primers by means of standard methodology [e.g., Schwab D A et al. (2000) Life Sciences 66: 1683-94]. The amounts of mRNA are normalized to an internal control, typically, cyclophilin. Serum TSH is measured using an enzyme immunoassay (EIA) kit designed for rat TSH (Amersham Pharmacia Biotech, Arlington Heights, Ill.).
# Normal rats (Sprague-Dawley) were maintained on a standard diet. […] The compounds were brought up to an appropriate volume using PBS and BSA to maintain solubility within the pump. The compounds were chemically stable in the excipient at 37° C. for 7 days.
# Values are expressed as percent of control. (Table 4)
# [5] = animals, e.g., rodent models and monkeys; cited from earlier work
# cholesterol-fed rat [6] = settings: cited from earlier work
# Sprague Dawley (SD) rat = assay: Cardiovascular activity of T3 mimetics in the Sprague Dawley rat, oral 7 days; format: in vivo; settings: SD rats, p.o. 7 days, Compound 18 1 mg/kg, Compound cis-13-1 1-50 mg/kg/day
# Text: Method: […] The control group (n=6) was given vehicle only. […] On the 7th day after the start of dosing, animals were anesthetized with Isoflurane and the left ventricle cannulated with a high fidelity catheter tip transducer via the right carotid artery. Left ventricular pressure, its first derivative (LVdP/dt), lead I ECG, and heart rate (HR) triggered off the ECG waveform, were digitally recorded. LV dP/dt is a well accepted measure of ionotropic state. Systolic and diastolic aortic pressures were measured by retracting the catheter into the proximal aorta.
# cholesterol-fed rat [7] = assay: Subacute studies in cholesterol-fed rats, IP once-a-day for seven days: serum cholesterol, heart weight, heart GPDH
# Method: The cholesterol-fed rat is an animal model of hypercholesterolemia generated by feeding the animals a diet with high cholesterol content.
# Serum cholesterol values were assessed and the animals randomized into groups for treatment.
smiles,measurement,setting,value
CC(C)c1cc(Oc2c(Cl)c(F)nc(NCP(=O)(OCOC(=O)C(C)(C)C)OCOC(=O)C(C)(C)C)c2Cl)ccc1O [Compound 12-9],efficacy in lowering cholesterol,[1],not efficiacous
"CCOC(=O)[C@H](C)NP(=O)(Cc1cc(Br)c(Oc2ccc(O)c(C(C)C)c2)c(Br)c1)N[C@@H](C)C(=O)OCC [Compound 15-5, Di-N-(L-1-ethoxycarbonylethylamino)[3,5-dibromo-4-(4′-hydroxy-3′-iso-propylphenoxy)benzyl]phosphonamide]",cholesterol lowering,[1],significant lowering of cholesterol
"Cc1cc(OC[P@@]2(=O)OCC[C@@H](c3cccc(Br)c3)O2)cc(C)c1Cc1ccc(O)c(C(C)C)c1 [Compound 13-2-cis, 2-[(3,5-dimethyl-4-(4′-hydroxy-3′-iso-propylbenzyl)phenoxy)methyl]-4-(3-bromophenyl)-2-oxo-2λ^5-[1,3,2]-dioxaphosphonane]",efficacy in lowering cholesterol,[1],not efficiacous
Cc1cc(CCP(=O)(O)O)cc(C)c1Cc1ccc(F)c(C(C)C)c1 [Compound 42-2],pKi,[2],< 5.70
same,pKi,[3],< 5.70
"N[C@@H](Cc1cc(I)c(Oc2ccc(O)c(I)c2)c(I)c1)C(=O)O [Compound T3, triiodothyronine]",decrease in hepatic triglyceride content,Normal rats,4%
same,Heart GPDH,[4],284% of control
same,Heart weight,[4],146% of control
same,Liver GPDH,[4],406% of control
CCOP(=O)(Cc1cc(Br)c(Oc2ccc(O)c(C(C)C)c2)c(Br)c1)OCC [Compound 19-1],change in vivo at 0.5 mg/kg/day,"[1]; Rattus norvegicus, po, read-out: % Cholesterol Lowering",-6.56%
"CC(C)c1cc(Oc2c(Br)cc(CP(=O)(OCOC(=O)C(C)(C)C)OCOC(=O)C(C)(C)C)cc2Br)ccc1O [Compound 12-5, Di-(pivaloyloxymethyl)[3,5-dibromo-4-(4′-hydroxy-3′-iso-propylphenoxy)benzyl]phosphonate]",cholesterol lowering,[1],significant lowering of cholesterol
"CC(C)c1cc(Oc2c(Cl)cc(CC(=O)O)cc2Cl)ccc1O [Compound 18, 3,5-dichloro-4-[4′-hydroxy-3′-iso-propylphenoxy]benzeneacetic Acid, reference compound]",weight loss,[5],result in weight loss in animals
same,therapeutic index (TI) with respect to heart rate increases,cholesterol-fed rat [6],40
same,Heart weight,Sprague Dawley (SD) rat; vs control,significantly increased
same,heart weight normalized to body weight,Sprague Dawley (SD) rat; vs control,significantly increased
same,HR,Sprague Dawley (SD) rat; vs vehicle,marked and statistically significant increases
same,LV dP/dt,Sprague Dawley (SD) rat; vs vehicle,marked and statistically significant increases
same,systolic aortic pressure,Sprague Dawley (SD) rat; vs vehicle,marked and statistically significant increases
"Cc1cc(OCC(=O)O)cc(C)c1Cc1ccc(O)c(C(C)C)c1 [Compound 17, [3,5-dimethyl-4-(4′-hydroxy-3′-iso-propylbenzyl)phenoxy]acetic Acid]",serum cholesterol,"cholesterol-fed rat [7]; 0.1-1 mg/kg/day, IP once-a-day for seven days",significantly decreased serum cholesterol
same,therapeutic window (separation between cholesterol lowering and cardiac toxicity),cholesterol-fed rat [7]; cholesterol-fed rats,no separation between efficacy (cholesterol lowering) and toxicity
same,cardiac hypertrophy,"cholesterol-fed rat [7]; cholesterol-fed rats, IP seven days, Compound 17 0.1-1 mg/kg/day, Compound 7 all doses",Undesirable cardiac hypertrophy was observed
